Tests used:
Assay in all cases: Inhibition Assay
Carboxypeptidase B = molecular target: T1, Carboxypeptidase B (Helicoverpa zea, UniProt Q3T905)
T1 sequence (Q3T905 whole entry): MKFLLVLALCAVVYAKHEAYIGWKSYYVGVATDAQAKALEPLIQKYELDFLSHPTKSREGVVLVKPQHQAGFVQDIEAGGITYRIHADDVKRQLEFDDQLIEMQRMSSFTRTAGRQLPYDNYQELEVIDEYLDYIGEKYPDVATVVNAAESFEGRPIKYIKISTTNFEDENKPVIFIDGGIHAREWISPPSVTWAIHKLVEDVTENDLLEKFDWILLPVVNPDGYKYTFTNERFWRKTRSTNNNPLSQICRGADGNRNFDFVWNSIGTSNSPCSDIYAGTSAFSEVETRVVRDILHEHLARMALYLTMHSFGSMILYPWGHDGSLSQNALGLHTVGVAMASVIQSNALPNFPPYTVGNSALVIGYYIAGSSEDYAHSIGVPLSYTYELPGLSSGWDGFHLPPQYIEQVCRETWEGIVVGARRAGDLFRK
Excerpt: (§1) The aromatic compounds screening were characterized by molecular docking as well as by in vitro inhibition assay against carboxypeptidase(CPs) of different specifications and natural origin.

Carboxypeptidase B2 = molecular target: T2, Carboxypeptidase B2 (Homo sapiens, UniProt Q96IY4)
T2 sequence (Q96IY4 whole entry): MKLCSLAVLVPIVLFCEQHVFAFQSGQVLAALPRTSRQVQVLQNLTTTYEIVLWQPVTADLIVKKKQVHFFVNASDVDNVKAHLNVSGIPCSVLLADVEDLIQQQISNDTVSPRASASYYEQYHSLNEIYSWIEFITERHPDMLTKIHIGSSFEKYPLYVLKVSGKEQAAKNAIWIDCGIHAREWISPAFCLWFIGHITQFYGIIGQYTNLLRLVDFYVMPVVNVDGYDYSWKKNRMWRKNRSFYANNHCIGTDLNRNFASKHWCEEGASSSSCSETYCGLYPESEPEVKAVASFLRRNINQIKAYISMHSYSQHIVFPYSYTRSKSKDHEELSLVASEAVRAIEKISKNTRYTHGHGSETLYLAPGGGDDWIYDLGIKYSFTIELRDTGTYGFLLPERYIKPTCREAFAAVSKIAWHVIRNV
Excerpt: as §1

Carboxypeptidase A1 = molecular target: T3, Carboxypeptidase A1 (Bos taurus, UniProt P00730)
T3 sequence (P00730 whole entry): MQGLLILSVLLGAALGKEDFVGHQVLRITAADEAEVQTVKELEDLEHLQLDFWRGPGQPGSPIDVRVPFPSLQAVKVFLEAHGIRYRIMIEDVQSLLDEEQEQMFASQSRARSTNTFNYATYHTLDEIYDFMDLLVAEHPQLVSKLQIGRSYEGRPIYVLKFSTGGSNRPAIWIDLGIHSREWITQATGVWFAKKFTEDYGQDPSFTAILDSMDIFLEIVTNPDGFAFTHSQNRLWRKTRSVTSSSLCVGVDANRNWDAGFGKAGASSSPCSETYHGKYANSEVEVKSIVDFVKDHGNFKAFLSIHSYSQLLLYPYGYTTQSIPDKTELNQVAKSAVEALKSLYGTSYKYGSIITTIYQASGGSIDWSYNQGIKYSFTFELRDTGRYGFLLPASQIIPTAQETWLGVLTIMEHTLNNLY
Excerpt: as §1

Structure (SMILES) | Ki (Carboxypeptidase B) | Ki (Carboxypeptidase B2) | Ki (Carboxypeptidase A1)
COC(=O)c1ccccc1NC(=S)N(Cc1ccco1)Cc1cc2cccc(C)c2[nH]c1=O [methyl 2-(3-furan-2-ylmethyl)-3-((8-methyl-2-oxo-1,2,-dihydroquinolin-3-yl)methyl)thioureido)benzoate, 11] | 1.2 µM | 13.3 µM | 15 µM
O=C(Cn1nnc(-c2cccs2)n1)N1CCc2ccccc2C1 [1-(3,4-dihydroisoquinolin-2(1H)-yl)-2-(5thiophen-2-yl)-2H-tetrazol-2-yl)ethanone, 3] | 62 µM | 32 µM | 520 µM
O=C(O)CCSc1nnc(COc2cccc3ccccc23)n1-c1ccccc1 [3-(5-((naphthalen-1-yloxy)methyl)-4-pheny-4H-1,2,4-triazol-3-ythio)propanoic acid, 8] | 35 µM | 11.8 µM | 10.4 µM
O=c1[nH]c(CN(Cc2ccccc2)S(=O)(=O)c2ccc(F)cc2)nc2ccccc12 [N-benzyl-4-fluoro-N-((4-hydroxyquinazolin-2-yl)methylbenzensulfonamide, 9] | 82 µM | 14.3 µM | 37 µM
COc1ccc2[nH]c(=O)c(CN(CCO)C(=S)Nc3ccc(C)cc3)cc2c1 [1-(2-hydroxyethyl)-1-((6-methoxy-2-oxo-1,2-dihydroquinolin-3-yl)methyl)3-yl)methyl)-3-p-tolythiourea, 7] | 20.5 µM | 22.5 µM | 420 µM
Cc1ccc(C(=O)CSc2nnc(COc3cccc4cccnc34)o2)cc1 [1-(4-methylphenyl)-2-[[5-(8-quinolinyloxymethyl)-1,3,4-oxadiazol-2-yl]thio]ethanone] | 14 µM | 50 µM | 32 µM
Nc1nccc2cc(CC(N)C(=O)O)ccc12 (stereo not given) [2-Amino-3-(1-aminoisoquinolin-6-yl)propanoic acid, 1] | 100 µM | 220 µM | 280 µM
Cc1ccc2[nH]c(=O)c(CN(Cc3cccs3)C(=S)NC(C)c3ccccc3)cc2c1 (stereo not given) [1-((6-methyl-2-oxo-1,2-dihydroquinolin-3-yl)methyl)-3-(1-phenylethyl)-1-(thiophen-2-ylmethyl)thiourea, 10] | 0.58 µM | 1.6 µM | 3.8 µM
Cc1ccc(C(=O)CSc2nnc(COc3ccc4ccccc4c3)o2)cc1 [2-(5-(naphthalen-2-yloxy)methyl)-1,3,4-oxadiazol-2-ylthio)-1-p-tolylethanone, 5] | 1.6 µM | 1.9 µM | 58 µM
Nc1nccc2ccc(CC(N)C(=O)O)cc12 (stereo not given) [2-amino-3-(1-aminoisoquinolin-7-yl)propanoic acid, 2] | 129 µM | 145 µM | 290 µM
